Like-named read-outs stand apart in the source and are kept apart here.
Columns and labels:
[1] = system: Daudi cell line (AID positive); experiment: Primary screening cell killing assay, Daudi cell line (AID positive); type: cell-based; conditions: Homo sapiens, 168 h, cell death on Day 7, Cell-Titer Glo
Outline: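 AID-positive Daudi cells, 1250 per well, were exposed to serially diluted compounds for 7 days at 37° C. Viability read by CellTiter-Glo luminescence; percent cell death and EC50 derived against untreated wells after media-blank subtraction.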

[2] = system: WI-38 cells (AID negative); experiment: Primary screening cell killing assay repeated in WI-38 cells (AID negative); type: cell-based; conditions: Homo sapiens, 168 h, cell death on Day 7, Cell-Titer Glo
Experimental: Primary screening was a phenotypic screen that utilized the synthetic lethal interaction between AID and RAD51 to identify compounds that were both potent and on target. AID expressing cells are dependent upon RAD51 for survival; inhibiting RAD51 in AID positive cells results in a cytotoxic effect.
Percent cell death and EC50 values were calculated by comparing the cell viability of the compound treated wells to the non-treated wells. Normalized RLU values were obtained by subtracting the media well values from each of the wells in the same column, and then dividing that value by the DMSO treated cells values. The percent kill was then calculated by subtracting the normalized RLU value from 1 and multiplying by 100. The average normalized percent kill value and standard error of the mean was then calculated. The kill values were then inputted into Prism with the corresponding standard errors. In Prism a non-linear regression line was plotted with the data points using a semi-log scale, and the EC50 value was calculated.

[3] = Bi-directional Caco-2 permeability; type: in vitro ADME; conditions: human; for efflux ratio at 90 min: Caco-2, read-out: BA/AB Ratio; for Papp A→B at 90 min: Caco-2, apical to basolateral, read-out: AB Papp (cm/sec × 10^6); for Papp A→B at 90 min / Papp B→A at 90 min: 37 C, up to 90 minutes; for Papp B→A at 90 min: Caco-2, basolateral to apical, read-out: BA Papp (cm/sec × 10^6)
Experimental: Bi-directional Caco-2 permeability was assayed. Caco-2 cells were seeded onto permeable polycarbonate supports and allowed to differentiate for about 3 weeks prior to being used in the assays. The cells were then exposed to the compounds from either the apical or basolateral sides and incubated at 37 C for up to 90 minutes under light agitation. Compound transport was then measured using LC/MS/MS analysis at 30, 60, and 90 minutes.

[4] = Caco-2, Caco-2, AB direction, read-out: AB Recovery %
[5] = Caco-2, Caco-2, BA direction, read-out: BA Recovery %

SMILES | EC50 [1] | EC50 [2] | recovery at 90 min [3, 4] | recovery at 90 min [3, 5] | efflux ratio at 90 min [3] | Papp A→B at 90 min [3] | Papp B→A at 90 min [3]
CC(C)(C)NS(=O)(=O)c1cc(NC(=O)NCc2ccccc2)ccc1-c1cnc([C@H]2CC[C@H](NC(=O)OC(C)(C)C)CC2)s1 [Ex. 10, trans-tert-butyl N-[4-[5-[4-(benzylcarbamoylamino)-2-(tert-butylsulfamoyl)phenyl]thiazol-2-yl]cyclohexyl]carbamate] | ≤ 100 nM | > 1000 nM | 59.9% | 87.2% | 1.3 | 1.2 ×10⁻⁶ cm/s | 1.5 ×10⁻⁶ cm/s
CC(C)OC(=O)Nc1ccc(-c2cnc(C34CCC(NC(=O)OC(C)C)(CC3)CC4)s2)c(S(=O)(=O)NC(C)(C)C)c1 [Ex. 17, isopropyl N-[3-(tert-butylsulfamoyl)-4-[2-[4-(isopropoxycarbonylamino)-1-bicyclo[2.2.2]octanyl]thiazol-5-yl]phenyl]carbamate] | 100 to 1000 nM | > 1000 nM | 47.2% | 81.9% | 0.8 | 2.8 ×10⁻⁶ cm/s | 2.1 ×10⁻⁶ cm/s
CC(C)OC(=O)N[C@H]1CC[C@H](c2ncc(-c3ccc(NC(=O)NCc4cccc(F)c4)cc3S(=O)(=O)NC(C)(C)C)s2)CC1 [Ex. 27, isopropyl ((1r,4r)-4-(5-(2-(N-(tert-butyl)sulfamoyl)-4-(3-(3-fluorobenzyl)ureido)phenyl)thiazol-2-yl)cyclohexyl)carbamate] | ≤ 100 nM | > 1000 nM | 92% | 107% | 0.7 | 0.7 ×10⁻⁶ cm/s | 0.5 ×10⁻⁶ cm/s
CC(C)OC(=O)N[C@H]1CC[C@H](c2ncc(-c3ccc(NC(=O)N[C@H](C)c4ccccn4)cc3S(=O)(=O)NC(C)(C)C)s2)CC1 [Ex. 30, isopropyl ((1R,4r)-4-(5-(2-(N-(tert-butyl)sulfamoyl)-4-(3-((R)-1-(pyridin-2-yl)ethyl)ureido)phenyl)thiazol-2-yl)cyclohexyl)carbamate] | ≤ 100 nM | > 1000 nM | 79.8% | 116% | 1.4 | 11.5 ×10⁻⁶ cm/s | 15.7 ×10⁻⁶ cm/s
CC(C)OC(=O)NC1CCC(c2ncc(-c3ccc(NC(=O)OC4COC4)cc3S(=O)(=O)NC(C)(C)C)s2)CC1 (centres unmarked) [Ex. 38, isopropyl ((1r,4r)-4-(5-(2-(N-(tert-butyl)sulfamoyl)-4-(((oxetan-3-yloxy)carbonyl)amino)phenyl)thiazol-2-yl)cyclohexyl)carbamate] | ≤ 100 nM | > 1000 nM | 73.3% | 82.3% | 1.3 | 17.9 ×10⁻⁶ cm/s | 22.9 ×10⁻⁶ cm/s
CC(C)(C)NS(=O)(=O)c1cc(NC(=O)NCc2ccccc2)ccc1-c1cnc([C@H]2CC[C@H](NC(=O)OC3COC3)CC2)s1 [Ex. 47, trans-oxetan-3-yl N-[4-[5-[4-(benzylcarbamoylamino)-2-(tert-butylsulfamoyl)phenyl]thiazol-2-yl]cyclohexyl]carbamate] | ≤ 100 nM | > 1000 nM | 65.3% | 80.7% | 1.4 | 8.7 ×10⁻⁶ cm/s | 12.4 ×10⁻⁶ cm/s
CC(C)OC(=O)Nc1ccc(-c2cnc(C3CCC(NC(=O)OC4COC4)CC3)s2)c(S(=O)(=O)NC(C)(C)C)c1 (centres unmarked) [Ex. 48, oxetan-3-yl ((1r,4r)-4-(5-(2-(N-(tert-butyl)sulfamoyl)-4-((isopropoxycarbonyl)amino)phenyl)thiazol-2-yl)cyclohexyl)carbamate] | 100 to 1000 nM | > 1000 nM | 80.1% | 90.3% | 0.7 | 23.1 ×10⁻⁶ cm/s | 16 ×10⁻⁶ cm/s
CC(C)(C)NS(=O)(=O)c1cc(NC(=O)NCc2ccccn2)ccc1-c1cnc(C2CCC(NC(=O)OC3COC3)CC2)s1 (centres unmarked) [Ex. 50, oxetan-3-yl ((1r,4r)-4-(5-(2-(N-(tert-butyl)sulfamoyl)-4-(3-(pyridin-2-ylmethyl)ureido)phenyl)thiazol-2-yl)cyclohexyl)carbamate] | ≤ 100 nM | > 1000 nM | 87.7% | 98.1% | 14.6 | 2 ×10⁻⁶ cm/s | 29.1 ×10⁻⁶ cm/s
C[C@H](NC(=O)Nc1ccc(-c2cnc(C3CCC(NC(=O)OC4COC4)CC3)s2)c(S(=O)(=O)NC(C)(C)C)c1)c1ccccc1 (stereo partly drawn) [Ex. 51, oxetan-3-yl ((1S,4r)-4-(5-(2-(N-(tert-butyl)sulfamoyl)-4-(3-((S)-1-phenylethyl)ureido)phenyl)thiazol-2-yl)cyclohexyl)carbamate] | ≤ 100 nM | > 1000 nM | 65% | 85.7% | 1.1 | 9.9 ×10⁻⁶ cm/s | 10.5 ×10⁻⁶ cm/s
C[C@@H](NC(=O)Nc1ccc(-c2cnc(C3CCC(NC(=O)OC4COC4)CC3)s2)c(S(=O)(=O)NC(C)(C)C)c1)c1ccccc1 (stereo partly drawn) [Ex. 52, oxetan-3-yl ((1R,4r)-4-(5-(2-(N-(tert-butyl)sulfamoyl)-4-(3-((R)-1-phenylethyl)ureido)phenyl)thiazol-2-yl)cyclohexyl)carbamate] | ≤ 100 nM | > 1000 nM | 64.1% | 91.7% | 1.5 | 7.4 ×10⁻⁶ cm/s | 10.9 ×10⁻⁶ cm/s
CC(C)(C)NS(=O)(=O)c1cc(NC(=O)NCc2ccccc2F)ccc1-c1cnc(C2CCC(NC(=O)OC3COC3)CC2)s1 (centres unmarked) [Ex. 53, oxetan-3-yl ((1r,4r)-4-(5-(2-(N-(tert-butyl)sulfamoyl)-4-(3-(2-fluorobenzyl)ureido)phenyl)thiazol-2-yl)cyclohexyl)carbamate] | ≤ 100 nM | > 1000 nM | 63.1% | 90.9% | 1 | 9.3 ×10⁻⁶ cm/s | 9.7 ×10⁻⁶ cm/s
CC(C)OC(=O)N[C@H]1CC[C@H](c2ncc(-c3ccc(NC(=O)OCc4ccccn4)cc3S(=O)(=O)NC(C)(C)C)s2)CC1 [Ex. 72, trans-2-pyridylmethyl N-[3-(tert-butylsulfamoyl)-4-[2-[4-(isopropoxycarbonylamino)cyclohexyl]thiazol-5-yl]phenyl]carbamate] | ≤ 100 nM | > 1000 nM | – | – | – | – | –
CC(C)OC(=O)N[C@H]1CC[C@H](c2ncc(-c3ccc(NC(=O)NCc4ccc(O)cc4)cc3S(=O)(=O)NC(C)(C)C)s2)CC1 [Ex. 73, trans-isopropyl N-[4-[5-[2-(tert-butylsulfamoyl)-4-[(4-hydroxyphenyl)methylcarbamoylamino]phenyl]thiazol-2-yl]cyclohexyl]carbamate] | ≤ 100 nM | > 1000 nM | – | – | – | – | –
CC(C)OC(=O)N[C@H]1CC[C@H](c2ncc(-c3ccc(NC(=O)NCc4ccccc4)cc3S(=O)(=O)NC(C)(C)CO)s2)CC1 [Ex. 74, trans-isopropyl N-[4-[5-[4-(benzylcarbamoylamino)-2-[(2-hydroxy-1,1-dimethyl-ethyl)sulfamoyl]phenyl]thiazol-2-yl]cyclohexyl]carbamate] | ≤ 100 nM | > 1000 nM | – | – | – | – | –

— patent publication US10336746B1, “RAD51 inhibitors” (Cyteir Therapeutics, Inc., priority 2017, dated 2019)
